This is an account of results in patent US7317038B2, “Nerve regeneration promoters containing semaphorin inhibitor as the active ingredient” (Dainippon Sumitomo Pharma Co., Ltd., priority 2000, dated 2008).

The target in data set [1] is T1, mouse semaphorin 3A (Sema3A) (Mus musculus, UniProt O08665).
T1 sequence (O08665 21-772): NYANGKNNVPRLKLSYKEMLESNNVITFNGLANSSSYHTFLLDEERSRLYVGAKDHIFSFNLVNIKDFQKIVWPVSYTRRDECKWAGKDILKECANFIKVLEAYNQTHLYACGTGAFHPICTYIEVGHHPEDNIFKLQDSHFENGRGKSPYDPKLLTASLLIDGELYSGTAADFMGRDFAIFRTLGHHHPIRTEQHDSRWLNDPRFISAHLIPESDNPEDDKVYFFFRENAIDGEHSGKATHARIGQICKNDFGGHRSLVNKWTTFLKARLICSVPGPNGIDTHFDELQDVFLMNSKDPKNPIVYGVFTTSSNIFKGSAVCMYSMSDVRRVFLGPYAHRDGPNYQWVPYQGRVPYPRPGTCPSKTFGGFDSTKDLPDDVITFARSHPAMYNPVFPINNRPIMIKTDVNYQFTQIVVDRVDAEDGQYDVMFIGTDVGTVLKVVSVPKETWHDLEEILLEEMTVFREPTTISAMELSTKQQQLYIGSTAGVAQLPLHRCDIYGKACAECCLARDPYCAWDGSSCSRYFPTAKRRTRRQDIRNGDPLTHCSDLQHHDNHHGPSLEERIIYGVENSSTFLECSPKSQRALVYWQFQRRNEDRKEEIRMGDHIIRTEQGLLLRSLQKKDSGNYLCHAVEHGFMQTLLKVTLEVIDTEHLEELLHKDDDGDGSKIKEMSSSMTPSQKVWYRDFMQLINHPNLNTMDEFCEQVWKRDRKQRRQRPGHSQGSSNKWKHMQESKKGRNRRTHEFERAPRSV
Put plainly: Suppression of growth cone collapse activity of Sema3A (chick embryo dorsal root ganglions). Format: cell-based. As to conditions: E7 chick embryo dorsal root ganglions; 2 units/ml Sema3A added 1 hour after compound; concentration where collapse rate = (A+B)/2; read-out: IC50 of inhibition of the growth cone collapse activity of Sema3A (converted). The method, then: A 96-well plate (Sumitomo Bakelite Co., ltd. ) pre-coated with polylysine was further coated with laminine (20 μg/ml of laminine, for 1 hour at room temperature). Each well was added with 100 μl of medium (F12 medium containing 10% bovine fetal serum, 20 ng/ml of NGF, 100 units/ml of penicillin and 100 μg/ml of streptomycin) which media were then inoculated with dorsal root nerve ganglions excised from E7 (Embryonic day 7) chick embryo and were cultured for 16 to 20 hours under 5% CO2 and at 37° C. Subsequently, the object compounds were added to media at various concentrations and 2 units/ml of mouse semaphorin 3A (Sema3A) was added after cultivating for 1 hour. The cultures were further incubated for another 1 hour. Glutaraldehyde was quickly added therein after said 1 hour to make the final concentration 1%. The cultures were then left for 15 minutes at room temperature so that the tissue sections were fixed, and collapse rates of the growth cones were microscopically observed. A well with no addition of Sema3A was made the control.
The longitudinal and lateral axes in the figures represent the collapse rate of growth cones and the concentration of compounds, respectively. ●▪▴ show the results when Sema3A was added after the addition of the compounds and ◯[…]Δ show those when Sema3A was not added. Further, IC50 (μg/ml) of the inhibitors were determined by the method comprising: calculating the collapse rate of growth cone (A) % of the negative controls (neither compounds nor Sema3a was added); subsequently calculate the collapse rate of growth cone (B) % of the positive controls (compounds were not added but Sema3a was added); and the concentration was chosen for each compound from the chart where the collapse rate of growth cone met (A+B)/2(%), which was made IC50 level. The followings are the results.

Data set [2] is described as follows: Solubility. In kind it is physicochemical.
The test system of data set [3] is COS7 cells. Description: Effect on cell proliferation (MTT). In kind it is cell-based. As to conditions: Chlorocebus aethiops, COS-7, 48 h, two days, read-out: IC50, inhibitory rate for cell proliferation. The method, then: COS7 cells were seeded onto a 96-well plate (medium 100 μl/well) at 10000 cells per well. At the same time, SPF-3059-1 of various concentrations was added and the cells were cultivated for two days in the presence of 5% CO2 at 37° C. Each well was then added with 10 μl of MTT solution at 5 mg/ml and cultured for another one hour. Subsequently, the culture supernatant was removed and formazan (an MTT derivative produced in viable cells) accumulated in the cells was dissolved by the addition of 50 μl DMSO and then the absorbance at 570 nm was measured to determine the proliferation of COS7 cells. […] The longitudinal and lateral axes in the figure show cell proliferation and the SPF-3059-1 concentration, respectively. Besides, the standard deviation (n=4) was added to each column.
The same effect on cell proliferation as in Example 9 was examined for the compounds, SPF-3059-1, SPF-3059-2 and SPF-3059-5. The wells with these compounds were served as samples, the wells with PBS were served as control, and the wells for which the experiment was carried out without adding the cells was served as blank. IC50 (μg/ml), the inhibitory rate for cell proliferation, was determined, which is calculated by the equation shown below. The inhibitory rate for cell proliferation (%)=(1−(absorbance of a sample well−absorbance of the blank well)/(absorbance of the control well−absorbance of the blank well))×100

Each structure is given as a SMILES string.

For the compound `CC(=O)c1cc(-c2c(C(C)=O)cc3c(=O)c4c(C(=O)O)c(O)c(O)cc4oc3c2C(C)=O)cc(C(=O)c2cc(O)c(O)cc2O)c1O` [SPF-3059-27], the IC50 in data set [1] is 778 nM. Moreover, the Solubility result in data set [2] (methanol, DMSO) is recorded as “Soluble”; in data set [2] (water, hexane) it was “Insoluble”.
Take `COCc1c(-c2cc3c(=O)c4cc(O)c(O)cc4oc3c(C(C)=O)c2C)oc2cc(O)c(O)c(C(=O)O)c2c1=O` [SPF-3059-29]: the IC50 in data set [1] is 182 nM; in data set [3], more than 100 µg/mL. Moreover, the Solubility result is recorded as “Soluble” in data set [2] (methanol, DMSO) and “Insoluble” in data set [2] (water, hexane).
For `CC(=O)c1cc(-c2c(C(C)=O)cc3c(=O)c4cc(O)c(O)cc4oc3c2C(C)=O)cc(C(=O)c2cc(O)c(O)cc2O)c1O` [SPF-3059-36], the IC50 in data set [1] was 6680 nM. The Solubility entry in data set [2] (methanol, DMSO) was “Soluble”; in data set [2] (water, hexane), “Insoluble”.
For `CC(=O)c1c(C)c(C(=O)C2(O)COc3cc(O)c(O)cc3C2=O)cc2c(=O)c3c(C(=O)O)c(O)c(O)cc3oc12` (stereo not shown) [SPF-3059-34], in that order: 182 nM, “Soluble” and “Insoluble”.
The matching figures for `CC(=O)c1c(C)c(-c2cc(=O)c3c(C(=O)O)c(O)c(O)cc3o2)cc2c(=O)c3c(C(=O)O)c(O)c(O)cc3oc12` [SPF-3059-39]: 182 nM, “Soluble” and “Insoluble”.
The matching figures for `CC(=O)c1c(C)c(-c2oc3cc(O)c(O)c(C(=O)O)c3c(=O)c2Cc2c(C)oc3c(c2=O)COc2cc(O)c(O)cc2-3)cc2c(=O)c3c(C(=O)O)c(O)c(O)cc3oc12` [SPF-3059-37]: less than 124 nM, “Soluble” and “Insoluble”.
As for `CC(=O)c1cc2c(=O)c3cc(O)c(O)cc3oc2c(C(C)=O)c1-c1coc2cc(O)c(O)cc2c1=O` [SPF-3059-26], the IC50 in data set [1] was 409 nM. Besides, the Solubility entry in data set [2] (methanol, DMSO) was “Soluble”; in data set [2] (water, hexane) it was “Insoluble”.
For `COC(=O)c1cc(O)cc2oc(-c3cc4c(=O)c5c(C(=O)O)c(O)c(O)cc5oc4c(C(C)=O)c3C)cc(=O)c12` [SPF-3059-35], in that order: 3660 nM, “Soluble” and “Insoluble”.
For the compound `CC(=O)c1c(C)c(C(=O)C2COc3cc(O)c(O)cc3C2=O)cc2c(=O)c3c(C(=O)O)c(O)c(O)cc3oc12` (stereo not shown) [SPF-3059-9], the IC50 was 187 nM in data set [1] and more than 100 µg/mL in data set [3]. Moreover, the Solubility result in data set [2] (methanol, DMSO) is “Soluble”; in data set [2] (water, hexane), “Insoluble”.
In the case of `CC(=O)c1cc2c(=O)c3c(C(=O)O)cc(O)cc3oc2c(C(C)=O)c1-c1coc2cc(O)c(O)cc2c1=O` [SPF-3059-25], the IC50 in data set [1] was 7750 nM. The Solubility result in data set [2] (methanol, DMSO) is listed as “Soluble”; in data set [2] (water, hexane), “Insoluble”.
The matching figures for `CC(=O)c1c(C)c(-c2cc(=O)c3c(C(=O)O)cc(O)cc3o2)cc2c(=O)c3c(C(=O)O)c(O)c(O)cc3oc12` [SPF-3059-28]: 3760 nM, “Soluble” and “Insoluble”.
Regarding `CC(=O)c1cc2c(=O)c3c(C(=O)O)c(O)c(O)cc3oc2c(C(C)=O)c1-c1coc2cc(O)c(O)cc2c1=O` [SPF-3059-24], the values for the IC50 in data set [1] and in data set [3] were 188 nM and more than 100 µg/mL, respectively. In addition, the Solubility entry in data set [2] (methanol, DMSO) was “Soluble”; in data set [2] (water, hexane), “Insoluble”.
For `CC(=O)c1c(C)c(C(=O)C2COc3cc(O)c(O)cc3C2=O)cc2c(=O)c3cc(O)c(O)cc3oc12` (stereo not shown) [SPF-3059-30], the IC50 in data set [1] was 408 nM; in data set [3], more than 100 µg/mL. The Solubility entry was “Soluble” in data set [2] (methanol, DMSO) and “Insoluble” in data set [2] (water, hexane).
